Numbers after ± are expanded uncertainties.
What was measured:
[1] = refractive index (Na D-line) (dimensionless); conditions: 298.15 K; 101.33 kPa; Liquid; Standard Abbe refractometry
[2] = 298.15 K; 101.33 kPa; Liquid; Vibrating tube method

SMILES | refractive index [1] | mass density [2] [kg/m3]
c1ccsc1 [thiophene] | 1.52523 ± 0.00035 | 1058.61 ± 0.12
CCCCCC [hexane] | 1.37236 ± 0.00039 | 655.09 ± 0.26
Cc1ccccc1 [toluene] | 1.49367 ± 0.00035 | 862.18 ± 0.13
CCCCCC[n+]1ccc(C)cc1C.O=S(=O)([N-]S(=O)(=O)C(F)(F)F)C(F)(F)F | 1.45336 ± 0.00052 | 1339.39 ± 1.6
c1ccncc1 [pyridine] | 1.50636 ± 0.00035 | 978.24 ± 0.1
